Data reported in US8999071B2, “Surfactants derived from oligoglycerols” (Dow Global Technologies LLC, priority 2011, dated 2015).

Tests used:
Format in all cases: physicochemical
[1] = Dynamic surface tension, maximum bubble pressure method (Kruss BP-2)
Protocol: Dynamic surface tension is measured using a Kruss BP-2 Bubble Pressure Tensiometer. During the test, high purity nitrogen gas bubbles are produced in the surfactant solution at an exactly defined bubble generation rate. The gas bubbles enter the liquid through a glass capillary of known radius (0.223 mm). During this process the pressure passes through a maximum whose value is recorded by the instrument. Surface tension is then calculated from the maximum pressure during bubble formation, and reported as a function of bubble surface age, in ms, and bubble frequency. The measurements are made at ambient temperature.
Dynamic surface tension of surfactants at varying surface ages (presented as bubble frequency) are measure by bubble pressure method on Kruss BP2 tensiometer at 0.1 wt % concentration and 25° C.

[2] = Surface tension and critical micelle concentration, Kruss K100 tensiometer with Wilhelmy plate; conditions: 25° C., FIG. 1
Protocol: The surface tension and critical micelle concentration (cmc) of a surfactant solution is measured using Kruss K100 Surface Tensiometer fitted with a Wilhelmy platinum plate. A standard method is utilized. In this method, an increment of surfactant solution is added using a Dosimat™ dosimeter to the vessel initially containing deionized water, and then thoroughly stirred. The surface tension of the resulting solution is then measured. The process is repeated at each concentration data point. Two measurements are made for each system at ambient temperature.
Surface tension-Concentration data for the compound 3 at 25° C. are plotted in FIG. 1.

[3] = Dynamic surface tension, maximum bubble pressure method (Kruss BP-2); remark: listed apart in the source
[4] = Acidic stability: appearance and shake foam in 0.01 M HCl
Protocol: The acidic stability of compounds 1 and 2 are tested and compared with Triton™ CG-110 in 0.01 M HCl: solutions are prepared in 0.01 M HCl at 0.1 wt % surfactant concentration. Compound 1 solution is cloudy at this HCl concentration, indicating its cloud point is reduced by the presence of HCl.

[5] = Caustic stability: solubility in NaOH solution
Protocol: The caustic stability of compounds 1 and 2 is measured by their solubility in 10 wt % NaOH solution: stock solutions are prepared at 1 wt %. Into a sample vial, 1.0 gram of a stock solution is weighed and then 9.0 grams of 11.1 wt % NaOH solution is added to get a 0.1 wt % surfactant solution in 10% NaOH. Both solutions are clear at this condition. In contrast, Tomadol® 91-6 (C9-C11 alcohols ethoxylated to 6EO, cloud point=52° C.) solution (0.1 wt %) becomes cloudy at 5% NaOH content.

CCCCCCCCCCCOCC(O)COCC(O)CO (stereo not drawn) [Compound 6, 3-(2-hydroxy-3-(undecyloxy)propoxy)propane-1,2-diol]
Surface Tension @ 6 bubbles/sec., 0.1 wt % ([1]; 25° C.): 61.4 dyne/cm

CCCCCCCCCCOCC(O)COCC(O)CO (stereo not drawn) [Compound 4, 3[3-(decyloxy)-2-hydroxypropoxy]-1,2-propanediol]
Surface Tension @ 6 bubbles/sec., 0.1 wt % ([1]; 25° C.): 43.8 dyne/cm

CCCCCC(CCC)COCC(O)COCC(O)CO (stereo not drawn) [Compound 3, 3-(2-hydroxy-3-((2-propylheptyl)oxy)propoxy)propane-1,2-diol]
critical micelle concentration (cmc) [2]: about 700 ppm
water surface tension after reaching critical micelle concentration [2]: 26-27 dynes/cm
surface tension at bubble frequency larger than 10 bubbles/sec ([1]; 0.1 wt %, 25° C., >10 bubbles/sec, FIG. 2): around 37 dynes/cm
surface tension in the whole range of surface ageing time compared to the Lutensol products ([1]; 0.1 wt %, 25° C., FIG. 2): lower surface tension
surface tension over the whole tested range of ageing time compared to C12TG, C11DG and C10DG ([1]; 0.1 wt %, 25° C., FIG. 2): lower surface tension
surface tension at lower bubble frequency compared to Surfynol 420 ([1]; 1-6 bubbles/sec., 0.1 wt %, FIG. 2): significantly lower surface tension
Surface Tension @ 6 bubbles/sec., 0.1 wt % ([1]; 25° C.): 33.3 dyne/cm
Surface Tension @ 6 bubbles/sec., 0.05 wt % [3]: 39.4 dyne/cm

CCCCCCCCCCOCC(O)COCC(O)COCC(O)CO (stereo not drawn) [Compound 2, 3-(3-(3-(decyloxy)-2-hydroxypropoxy)-2-hydroxypropoxy)propane-1,2-diol]
acidic stability compared with Triton CG-110 ([4]; 0.01 M HCl): improved stability

CCCCCCCCCOCC(O)COCC(O)CO (stereo not drawn) [Compound 1, 3-[3-(nonyloxy)-2-hydroxypropoxy]-1,2-propanediol]
surface tension over the whole tested range of ageing time compared to C12TG, C11DG and C10DG ([1]; 0.1 wt %, 25° C., FIG. 2): lower surface tension
Surface Tension @ 6 bubbles/sec., 0.1 wt % ([1]; 25° C.): 35.6 dyne/cm
appearance of 0.1 wt % surfactant solution in 10% NaOH [5]: clear
acidic stability compared with Triton CG-110 ([4]; 0.01 M HCl): improved stability
Foam Volume, 20 h ([4]; 0.1 wt % in 0.01M HCl, 10 ml, shaken at high for 10 min., after 20 hours in air at room temperature): 17 mL
Foam Volume, 0 h ([4]; 0.1 wt % in 0.01M HCl, 10 ml, shaken at high for 10 min., right after preparation): 17 mL
foam persistence after shaking, 20 h ([4]; 0.1 wt % in 0.01M HCl, after 20 hours at room temperature): no change
foam persistence after shaking, 0 h ([4]; 0.1 wt % in 0.01M HCl, right after preparation): no change
appearance of solution in 0.01 M HCl ([4]; 0.1 wt % surfactant, 0.01 M HCl): cloudy

CCCCCCCCCCCCOCC(O)COCC(O)COCC(O)CO (stereo not drawn) [Compound C12TG, 3-(3-(3-(dodecyloxy)-2-hydroxypropoxy)-2-hydroxypropoxy)propane-1,2-diol, reference compound]
Surface Tension @ 6 bubbles/sec., 0.1 wt % ([1]; 25° C.): 56.9 dyne/cm
